# Experimental data reported in patent US20230068020A1, “MACROLIDE COMPOUND AND ITS USE OF TREATMENT CHRONIC RESPIRATORY DISEASE” (priority 2020, published 2023).
# Tests used:
# Type in all cases: cell-based
# [1] = tested on: Moraxella catarrhalis ATCC 43617; experiment: Antibacterial activity, agar dilution MIC; settings: ATCC43617, 20-24 hrs incubation, read-out: minimum inhibitory concentration MIC
# Experimental: (§1) The antibacterial activity of Erythromycin and compounds of examples were evaluated by the agar dilution method, following the guidelines of the CLSI. […] Briefly, bacteria were grown overnight in adapted media (MHIIA with 5% of sheep blood for Streptococcus pneumoniae and Haemophilus influenzae, and MHIIA for the other bacteria strains) at 35° C., 5% CO2.
# (§2) Cultures were centrifuged at 3000×g for 15 min. Pellets were diluted with 5 mls cold PBS and the OD600nm was adjusted to 10^8 CFU.mL^−1 with a spectrometer. Bacteria were then added to 96-well test plates. Compounds were diluted in DMSO in a 2 fold steps from 20 mg/ml in DMSO in 96 well plated and transferred to the test plate. During the incubation, the plate was maintained at 35° C., 5% CO2.
# (§3) The MICs for Erythromycin and compounds of examples were determined after 20-24 hrs incubation.
# [2] = tested on: Acinetobacter baumanii ATCC 17978; experiment: Antibacterial activity, agar dilution MIC; settings: Acinetobacter baumannii, ATCC17978, 20-24 hrs incubation, read-out: minimum inhibitory concentration MIC
# Experimental: as §1, §2, §3
# [3] = tested on: Haemophilus influenzae ATCC 49247; experiment: Antibacterial activity, agar dilution MIC; settings: ATCC49247, 20-24 hrs incubation, read-out: minimum inhibitory concentration MIC
# Experimental: as §1, §2, §3
# [4] = tested on: Acinetobacter baumannii ATCC-BAA-1605; experiment: Antibacterial activity, agar dilution MIC; settings: ATCCBAA1605, 20-24 hrs incubation, read-out: minimum inhibitory concentration MIC
# Experimental: as §1, §2, §3
# [5] = tested on: Staphylococcus aureus NRS 384; experiment: Antibacterial activity, agar dilution MIC; settings: NRS384, 20-24 hrs incubation, read-out: minimum inhibitory concentration MIC
# Experimental: as §1, §2, §3
# [6] = tested on: Streptococcus pyogenes ATCC BAA-572; experiment: Antibacterial activity, agar dilution MIC; settings: ATCCBAA572, 20-24 hrs incubation, read-out: minimum inhibitory concentration MIC
# Experimental: as §1, §2, §3
# [7] = tested on: Streptococcus pneumoniae ATCC 49619; experiment: Antibacterial activity, agar dilution MIC; settings: ATCC49619, 20-24 hrs incubation, read-out: minimum inhibitory concentration MIC
# Experimental: as §1, §2, §3
# [8] = tested on: Enterococcus faecalis ATCC 29212; experiment: Antibacterial activity, agar dilution MIC; settings: ATCC29212, 20-24 hrs incubation, read-out: minimum inhibitory concentration MIC
# Experimental: as §1, §2, §3
# [9] = tested on: Streptococcus pneumoniae ATCC 6301; experiment: Antibacterial activity, agar dilution MIC; settings: ATCC6301, 20-24 hrs incubation, read-out: minimum inhibitory concentration MIC
# Experimental: as §1, §2, §3
# [10] = tested on: Staphylococcus aureus ATCC 29213; experiment: Antibacterial activity, agar dilution MIC; settings: ATCC29213, 20-24 hrs incubation, read-out: minimum inhibitory concentration MIC
# Experimental: as §1, §2, §3
# THP-1 cell [11] = experiment: Cell viability (LD50) in THP-1 differentiation test
# Experimental: The medium lethal dose (LD50) is the dosage of a compound that reduces the cell viability by 50%, and is determined using non-linear logistic regression.
# THP-1 cell [12] = experiment: Differentiation of monocyte to macrophage in THP-1 cell line; settings: for EC50: THP-1 differentiate to macrophage, PMA, 96 hrs incubation; for Emax / Maximal activation level: ratio of best effect of compound to that of erythromycin 100 uM, THP-1 differentiation; for Emax: read-out: Maximal activation level
# Experimental: The THP-1 cell line was purchased from ATCC (American Type Culture Collection, Manassas, Va.). Cells were maintained in growth medium (RPMI-1640) with supplemented with 10% heat inactivated bovine serum, 100× Glutamax medium and 0.05 mM β-Mercaptoethanol at 37° C. under 5% CO2. Compounds were dissolved in 0.1% DMSO. Erythromycin was used as a positive control.
# For the assessment of the effect of compounds of the present invention on differentiation of monocyte to macrophage in THP-1 cell line, cells were collected and centrifuged at 900 rpm for 4 minutes. The cell density was adjusted to 2.5×10^5/mL. cell suspension of 400 μL was added to each well of 48-well plate following the plate layout. PMA 1 mg, a compound can induce monocyte differentiation, was dissolved in 10 mL DMSO to form 100 μg/mL solution and aliquote it into 1 mL per vial. 1 mL solution can be further aliquoted into 10 μL per vial and stored the aliquots at −20° C. Make 10-fold dilution of PMA with DMSO and then 500-fold dilution with complete medium. 50 μL solution were then added to each well of 48-well plate following the plate layout. Erythromycin and compounds of examples at stock concentration of 10 mM was serially diluted at 10-fold in DMSO. 50 μL solution was added to each well of 48-well plate following the plate layout. After 96 hrs incubation at 37° C., 5% CO2, the plate was washed with DPBS for three times to remove non-adherent cells for three times. Complete medium 180 μL and alarmar blue 20 μL was added to each well. The fluorescent intensity was read at excitation 530 nm and emission 590 nm using PerkinElmer Victor3 after 3 hours plate incubation.
# The differentiation activity of compounds of Examples is compared to that of 100 μM erythromycin and the results are shown in FIG. 1 and Table 3.
# BEAS-2B cell = experiment: Cell viability (LD10) in BEAS-2B IL-8 test; settings: BEAS-2B cell viability
# From the text: The lethal dose (LD10) is the dosage of a compound that reduces the cell viability by […], and is estimated from non-linear logistic regression.
# [13] = tested on: IL-8 expression in BEAS-2B cell; experiment: LPS induced IL-8 release by BEAS-2B (ELISA); settings: for Maximum Inhibition: IL-8 expression in BEAS-2B cells, LPS; for IC10: concentration inhibiting IL-8 production on BEAS-2B by 10%, LPS 20 μg/mL
# Experimental: The inhibitory effect of compounds of Examples on the IL-8 expression in BEAS-2B cell was tested using the following method. BEAS-2B was purchased from ATCC (American Type Culture Collection, Manassas, Va.). Cells were maintained in growth medium (LHC-9) and cultured at 37° C. under 5% CO2. Compounds were dissolved in 0.1% DMSO. Erythromycin was used as a positive control.
# For the assessment of the effect of compounds of Examples on IL-8 expression inhibition in BEAS-2B cell line, cells were plated in 24 well plate at a density of 100,000/mL, in a final volume of 1 mL of assay medium. Cells were incubated at 37° C., 5% CO2 for 1 day. After the incubation, compounds were added at day 2 and LPS was added at day 3. A compound source plate was prepared by triplicate five-point 10-fold or 2-fold serial dilutions in DMSO, beginning at 1 mM (final top concentration of compounds of Examples in the assay was 100 μM and the DMSO was 0.1%). The positive control consisted of cells treated with 100 μM erythromycin and negative control was consisted of 0.1% DMSO treated cells. LPS stock solution at 5 mg/mL was made by dissolving 10 mg of LPS powder into 2 mL of ddH2O and aliquoted to 100 μL per vial. Final concentration of LPS in the assay was […] by making 125-fold dilution of stock solution with medium.
# Specific immunoreactivity for IL-8 in culture supernatants were measured by a commercially available ELISA kits (R&D Systems, Inc., Minneapolis, Minn.). Each sample was assayed in duplicates as recommended by the manufacture. The concentration of compounds of Examples inhibiting IL-8 production on BEAS-2B by 10% was estimated from a 4-parametric of the normalized dose response curve. (IC10)
# [14] = dosage that reduces the cell viability by 50%, THP-1
structure (smiles),measurement,setting,value
"CC[C@H]1OC(=O)[C@H](C)[C@@H](O[C@H]2C[C@@](C)(OC)[C@@H](O)[C@H](C)O2)[C@H](C)[C@@H](O[C@H]2C[C@@H](N(C)C)C[C@@H](C)O2)[C@](C)(O)C[C@@H](C)C(=O)[C@H](C)[C@@H](O)[C@]1(C)O [LY101-2, (3R,4S,5S,6R,9R,11R,12R,13S,14R)-6-(((2S,4S,6R)-4-(dimethylamino)-6-methyltetrahydro-2H-pyran-2-yl)oxy)-14-ethyl-7,12,13-trihydroxy-4-(((2R,4R,5S,6S)-5-hydroxy-4-methoxy-4,6-dimethyltetrahydro-2H-pyran-2-yl)oxy)-3,5,7,9,11,13-hexamethyloxacyclotetradecane-2,10-dione]",MIC,[1],> 128 µg/mL
same,MIC,[2],> 128 µg/mL
same,MIC,[3],> 128 µg/mL
same,MIC,[4],> 128 µg/mL
same,MIC,[5],> 128 µg/mL
same,MIC,[6],64 µg/mL
same,MIC,[7],16 µg/mL
same,MIC,[8],> 128 µg/mL
same,MIC,[9],64 µg/mL
same,MIC,[10],64 µg/mL
same,LD50,THP-1 cell [11]; human,4.6 ± 1.3 µM
same,EC50,THP-1 cell [12]; Homo sapiens,0.3 ± 0.03 µM
same,Emax,THP-1 cell [12]; Homo sapiens,650 ± 170%
CC[C@H]1OC(=O)[C@H](C)[C@@H](OC2CC(C)(OC)C(O)C(C)O2)[C@H](C)[C@@H](OC2CC(NC)CC(C)O2)[C@@]2(C)CC(C)=C(O2)[C@H](C)[C@@H](O)[C@]1(C)O (stereo partly shown) [LY101-6],LD50,THP-1 cell [11]; [14],103.2 ± 11.4 µM
same,EC50,THP-1 cell [12],11.5 ± 3.2 µM
same,Maximal activation level,THP-1 cell [12],3.9 ± 0.8
CC[C@H]1OC(=O)[C@H](C)[C@@H](OC2CC(C)(OC)C(O)C(C)O2)[C@H](C)[C@@H](OC2CC(N(C)C(C)C)CC(C)O2)[C@@]2(C)CC(C)=C(O2)[C@H](C)[C@@H](O)[C@]1(C)O (stereo partly shown) [LY101-24],LD10,BEAS-2B cell,50 µM
same,LD50,THP-1 cell [11]; [14],56.9 ± 14.0 µM
same,Maximum Inhibition,[13],42%
same,IC10,[13],10 µM
same,EC50,THP-1 cell [12],6.8 ± 1.4 µM
same,Maximal activation level,THP-1 cell [12],7.0 ± 1.6
CC[C@H]1OC(=O)[C@H](C)[C@@H](OC2CC(C)(OC)C(O)C(C)O2)[C@H](C)[C@@H](OC2CC(N(C)C(C)=O)CC(C)O2)[C@@]2(C)CC(C)=C(O2)[C@H](C)[C@@H](O)[C@]1(C)O (stereo partly shown) [LY101-27],LD10,BEAS-2B cell,100 µM
same,LD50,THP-1 cell [11]; [14],121.1 ± 7.8 µM
same,Maximum Inhibition,[13],40%
same,IC10,[13],10 µM
same,EC50,THP-1 cell [12],12.2 ± 4.6 µM
same,Maximal activation level,THP-1 cell [12],5.3 ± 1.5
CC[C@H]1OC(=O)[C@H](C)[C@@H](OC2CC(C)(OC)C(O)C(C)O2)[C@H](C)[C@@H](OC2CC(N(C)C)CC(C)O2)[C@@](C)(O)CC(C)[C@H](N)[C@H](C)[C@@H](O)[C@]1(C)O (stereo partly shown) [LY101-30],LD50,THP-1 cell [11]; human,65.3 ± 7.1 µM
same,EC50,THP-1 cell [12]; Homo sapiens,36.8 ± 20.1 µM
same,Emax,THP-1 cell [12]; Homo sapiens,610 ± 120%
CC[C@H]1OC(=O)[C@H](C)[C@@H](OC2CC(C)(OC)C(O)C(C)O2)[C@H](C)[C@@H](OC2CC(NC)CC(C)O2)[C@@](C)(O)C[C@@H](C)[C@H](O)[C@H](C)[C@@H](O)[C@]1(C)O (stereo partly shown) [LY101-31],LD50,THP-1 cell [11]; human,115.0 ± 10.4 µM
same,EC50,THP-1 cell [12]; Homo sapiens,32.8 ± 2.5 µM
same,Emax,THP-1 cell [12]; Homo sapiens,620 ± 150%
CC[C@H]1OC(=O)[C@H](C)[C@@H](OC2CC(C)(OC)C(O)C(C)O2)[C@H](C)[C@@H](OC2CC(N(C)C(C)=O)CC(C)O2)[C@@](C)(O)C[C@@H](C)[C@H](O)[C@H](C)[C@@H](O)[C@]1(C)O (stereo partly shown) [LY101-33],LD10,BEAS-2B cell,60 µM
same,LD50,THP-1 cell [11]; human,110.0 ± 12.1 µM
same,Maximum Inhibition,[13],25%
same,IC10,[13],20 µM
same,EC50,THP-1 cell [12]; Homo sapiens,22.6 ± 5.7 µM
same,Emax,THP-1 cell [12]; Homo sapiens,314 ± 1%
CC[C@H]1OC(=O)[C@H](C)[C@@H](O)[C@H](C)[C@@H](OC2CC(N(C)C)CC(C)O2)[C@@](C)(O)C[C@@H](C)/C(=N\OCOCCOC)[C@H](C)[C@@H](O)[C@]1(C)O (stereo partly shown) [LY101-40],LD50,THP-1 cell [11]; human,100 µM
same,EC50,THP-1 cell [12]; Homo sapiens,106 µM
same,Emax,THP-1 cell [12]; Homo sapiens,180%
CC[C@H]1OC(=O)[C@H](C)[C@@H](OC2CC(C)(OC)C(O)C(C)O2)[C@H](C)[C@@H](OC2CC(N(C)C)CC(C)O2)[C@@](C)(O)C[C@@H](C)CN(C)[C@H](C)[C@@H](O)[C@]1(C)O (stereo partly shown) [LY101-44],LD50,THP-1 cell [11]; human,20.4 ± 8.4 µM
same,EC50,THP-1 cell [12]; Homo sapiens,1.2 ± 0.2 µM
same,Emax,THP-1 cell [12]; Homo sapiens,450 ± 90%
CC[C@H]1OC(=O)[C@H](C)[C@@H](OC2CC(C)(OC)C(O)C(C)O2)[C@H](C)[C@@H](OC2CC(N(C)C(C)C)CC(C)O2)[C@@](C)(O)C[C@@H](C)CN(C)[C@H](C)[C@@H](O)[C@]1(C)O (stereo partly shown) [LY101-47],LD50,THP-1 cell [11]; human,64.7 ± 17.9 µM
same,EC50,THP-1 cell [12]; Homo sapiens,4.3 ± 1.8 µM
same,Emax,THP-1 cell [12]; Homo sapiens,310 ± 110%
CC[C@H]1OC(=O)[C@H](C)[C@@H](OC2CC(C)(OC)C(O)C(C)O2)[C@H](C)[C@@H](OC2CC(N(C)C(C)=O)CC(C)O2)[C@@](C)(O)C[C@@H](C)CN(C)[C@H](C)[C@@H](O)[C@]1(C)O (stereo partly shown) [LY101-48],LD50,THP-1 cell [11]; human,111.0 ± 13.6 µM
same,EC50,THP-1 cell [12]; Homo sapiens,18.5 ± 4.2 µM
same,Emax,THP-1 cell [12]; Homo sapiens,420 ± 110%
